Results taken from patent publication US10099993B2, “Metabotropic glutamate receptor positive allosteric modulators (PAMS) and uses thereof” (Sanford-Burnham Medical Research Institute, priority 2014, dated 2018).

Assays:
mGlu3 = mGlu3 (Rattus norvegicus (Rat), UniProt P31422); test: mGlu3 GIRK thallium flux assay; conditions: for EC50: read-out: mGlu3 PAM EC50, PAM mode, test compound, then EC20 glutamate […] later in the presence of thallium, mean ± SEM; for Emax: read-out: mGlu3 PAM Max;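 for all read-outs here: kinetic fluorescence slope read shortly after thallium plus agonist addition, scaled between vehicle and maximal agonist control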
mGlu2 = mGlu2 (Rattus norvegicus (Rat), UniProt P31421); test: mGlu2 GIRK thallium flux assay; conditions: for EC50: read-out: mGlu2 PAM EC50, PAM mode, test compound, then EC20 glutamate […] later in the presence of thallium, mean ± SEM, at least three experiments; for Emax: read-out: mGlu2 PAM Max;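 for all read-outs here: Cell-based assay, rate of fluorescence rise right after thallium plus agonist addition read on a kinetic imaging plate reader, normalized to vehicle and maximal agonist control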
Sequence of mGlu2 (P31421 19-872): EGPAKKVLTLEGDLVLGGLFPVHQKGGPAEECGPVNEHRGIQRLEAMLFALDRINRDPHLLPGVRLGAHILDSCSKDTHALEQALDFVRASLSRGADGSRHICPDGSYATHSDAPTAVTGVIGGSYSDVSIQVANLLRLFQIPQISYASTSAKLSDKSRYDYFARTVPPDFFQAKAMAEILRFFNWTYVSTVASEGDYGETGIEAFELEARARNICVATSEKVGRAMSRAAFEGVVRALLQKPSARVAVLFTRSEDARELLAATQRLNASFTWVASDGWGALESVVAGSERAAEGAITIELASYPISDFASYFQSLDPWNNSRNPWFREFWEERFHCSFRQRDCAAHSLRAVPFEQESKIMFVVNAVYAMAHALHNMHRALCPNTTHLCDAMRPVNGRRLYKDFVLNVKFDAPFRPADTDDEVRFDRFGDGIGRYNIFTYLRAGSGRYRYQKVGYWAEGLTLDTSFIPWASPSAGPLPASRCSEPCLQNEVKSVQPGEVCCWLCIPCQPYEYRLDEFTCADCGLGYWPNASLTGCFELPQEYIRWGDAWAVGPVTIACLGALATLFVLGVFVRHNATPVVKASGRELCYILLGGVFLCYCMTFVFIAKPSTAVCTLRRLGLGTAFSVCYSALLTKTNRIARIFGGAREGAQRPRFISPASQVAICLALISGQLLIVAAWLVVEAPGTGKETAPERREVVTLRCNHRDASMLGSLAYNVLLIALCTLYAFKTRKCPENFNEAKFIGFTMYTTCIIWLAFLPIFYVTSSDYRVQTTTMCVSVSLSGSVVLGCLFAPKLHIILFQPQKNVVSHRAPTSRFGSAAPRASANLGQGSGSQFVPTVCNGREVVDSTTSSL

Sequence of mGlu3 (P31422 23-879): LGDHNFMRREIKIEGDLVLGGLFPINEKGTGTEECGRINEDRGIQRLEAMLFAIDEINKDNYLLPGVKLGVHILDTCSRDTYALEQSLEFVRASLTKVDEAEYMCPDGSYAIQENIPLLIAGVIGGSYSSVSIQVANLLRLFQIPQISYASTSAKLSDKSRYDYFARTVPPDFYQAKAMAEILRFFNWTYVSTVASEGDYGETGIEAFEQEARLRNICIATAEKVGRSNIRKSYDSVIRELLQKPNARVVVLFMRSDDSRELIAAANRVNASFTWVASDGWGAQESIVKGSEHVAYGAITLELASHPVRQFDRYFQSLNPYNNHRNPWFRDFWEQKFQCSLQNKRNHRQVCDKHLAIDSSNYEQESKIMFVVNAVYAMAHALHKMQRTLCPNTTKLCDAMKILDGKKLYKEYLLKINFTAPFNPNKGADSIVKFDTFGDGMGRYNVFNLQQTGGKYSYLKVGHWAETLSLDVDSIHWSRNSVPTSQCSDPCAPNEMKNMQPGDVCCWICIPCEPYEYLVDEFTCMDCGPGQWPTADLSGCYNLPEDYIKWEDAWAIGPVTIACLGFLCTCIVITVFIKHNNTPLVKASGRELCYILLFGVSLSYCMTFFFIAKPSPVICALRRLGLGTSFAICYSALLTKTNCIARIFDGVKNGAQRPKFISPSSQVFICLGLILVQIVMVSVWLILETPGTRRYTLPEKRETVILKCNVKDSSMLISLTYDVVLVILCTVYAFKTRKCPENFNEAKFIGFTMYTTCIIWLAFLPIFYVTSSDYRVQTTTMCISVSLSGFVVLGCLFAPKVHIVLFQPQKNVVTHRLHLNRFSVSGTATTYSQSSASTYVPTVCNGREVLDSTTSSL

Row | Compound | EC50 (mGlu3) [µM] | EC50 (mGlu2) [µM] | Emax (mGlu2) [%] | Emax (mGlu3) [%]
1 | Cc1c(OCCCCOc2ccc(CCC(=O)O)c(O)c2)ccc(C(=O)CC(C)C)c1O [Compound 5, reference compound] | > 30 |  |  | 
2 | COC(=O)c1ccc(OCCCCOc2ccc(C(=O)CC(C)C)c(C)c2C)cc1 [Compound 14, Methyl 4-(4-(2,3-dimethyl-4-(3-methylbutanoyl)phenoxy)butoxy)benzoate] | > 30 | > 30 |  | 
3 | COC(=O)c1ccc(OCCCCOc2ccc(C(=O)CC3CCCC3)c(C)c2C)cc1 [Compound 15, Methyl 4-(4-(4-(2-cyclopentylacetyl)-2,3-dimethylphenoxy)butoxy)benzoate] | > 30 | > 30 |  | 
4 | COC(=O)c1ccc(OCCCCOc2ccc(C(=O)CC(C)C)c(O)c2C)cc1 [Compound 16, Methyl 4-(4-(3-hydroxy-2-methyl-4-(3-methylbutanoyl)phenoxy)butoxy)benzoate] | > 30 | > 30 |  | 
5 | COC(=O)c1ccc(OCCCCOc2ccc(C(=O)CC3CCCC3)c(O)c2C)cc1 [Compound 17, Methyl 4-(4-(4-(2-cyclopentylacetyl)-3-hydroxy-2-methylphenoxy)butoxy)benzoate] | > 30 | > 30 |  | 
6 | Cc1c(OCCCCOc2ccc(C(=O)O)cc2)ccc(C(=O)CC(C)C)c1C [Compound 18, 4-(4-(2,3-Dimethyl-4-(3-methylbutanoyl)phenoxy)butoxy)benzoic acid] | > 30 | > 30 |  | 
7 | Cc1c(OCCCCOc2ccc(C(=O)O)cc2)ccc(C(=O)CC2CCCC2)c1C [Compound 19, 4-(4-(4-(2-Cyclopentylacetyl)-2,3-dimethylphenoxy)butoxy)benzoic acid] | > 30 | > 30 |  | 
8 | Cc1c(OCCCCOc2cccc(C(=O)O)c2)ccc(C(=O)CC(C)C)c1C [Compound 22, 3-(4-(2,3-Dimethyl-4-(3-methylbutanoyl)phenoxy)butoxy)benzoic acid] | > 30 | > 30 |  | 
9 | Cc1c(OCCCCOc2cccc(C(=O)O)c2)ccc(C(=O)CC2CCCC2)c1C [Compound 23, 3-(4-(4-(2-Cyclopentylacetyl)-2,3-dimethylphenoxy)butoxy)benzoic acid] | > 30 | > 30 |  | 
10 | Cc1c(OCCCCOc2ccccc2C(=O)O)ccc(C(=O)CC2CCCC2)c1C [Compound 27, 2-(4-(4-(2-Cyclopentylacetyl)-2,3-dimethylphenoxy)butoxy)benzoic acid] | > 30 |  |  | 
11 | Cc1c(OCCCCOc2ccccc2C(=O)O)ccc(C(=O)CC(C)C)c1O [Compound 28, 2-(4-(3-Hydroxy-2-methyl-4-(3-methylbutanoyl)phenoxy)butoxy)benzoic acid] | > 30 |  |  | 
12 | Cc1c(OCCCCOc2ccccc2C(=O)O)ccc(C(=O)CC2CCCC2)c1O [Compound 29, 2-(4-(4-(2-Cyclopentylacetyl)-3-hydroxy-2-methylphenoxy)butoxy)benzoic acid] | > 30 |  |  | 
13 | Cc1c(OCCCCOc2ccc(C(=O)O)c(Cl)c2)ccc(C(=O)CC(C)C)c1C [Compound 30, 2-Chloro-4-(4-(2,3-dimethyl-4-(3-methylbutanoyl)phenoxy)butoxy)benzoic acid] | > 30 |  |  | 
14 | Cc1c(OCCCCOc2ccc(F)c(C(=O)O)c2)ccc(C(=O)CC(C)C)c1C [Compound 34, 5-(4-(2,3-Dimethyl-4-(3-methylbutanoyl)phenoxy)butoxy)-2-fluorobenzoic acid] | > 30 | > 30 |  | 
15 | Cc1c(OCCCCOc2ccc(F)c(C(=O)O)c2)ccc(C(=O)CC2CCCC2)c1C [Compound 35, 5-(4-(4-(2-Cyclopentylacetyl)-2,3-dimethylphenoxy)butoxy)-2-fluorobenzoic acid] | > 30 | > 30 |  | 
16 | COc1cc(C(=O)O)ccc1OCCCCOc1ccc(C(C)=O)c(O)c1C [Compound 52, 4-(4-(4-Acetyl-3-hydroxy-2-methylphenoxy)butoxy)-3-methoxybenzoic acid] | > 30 |  |  | 
17 | COc1ccc(C(=O)O)cc1OCCCCOc1ccc(C(C)=O)c(O)c1C [Compound 53, 3-(4-(4-Acetyl-3-hydroxy-2-methylphenoxy)butoxy)-4-methoxybenzoic acid] | > 30 |  |  | 
18 | CC(=O)c1ccc(OCCCCOc2cccc(C(=O)O)c2C)c(C)c1O [Compound 54, 3-(4-(4-Acetyl-3-hydroxy-2-methylphenoxy)butoxy)-2-methylbenzoic acid] | > 30 |  |  | 
19 | CC(=O)c1ccc(OCCCCOc2ccc(F)c(C(=O)O)c2)c(C)c1O [Compound 55, 5-(4-(4-Acetyl-3-hydroxy-2-methylphenoxy)butoxy)-2-fluorobenzoic acid] | > 30 |  |  | 
20 | CC(=O)c1ccc(OCCCCOc2ccc(C(=O)O)cc2C)c(C)c1O [Compound 56, 4-(4-(4-Acetyl-3-hydroxy-2-methylphenoxy)butoxy)-3-methylbenzoic acid] | > 30 |  |  | 
21 | CCC(=O)c1ccc(OCCCCOc2ccc(C(=O)O)cc2OC)c(C)c1O [Compound 57, 4-(4-(3-Hydroxy-2-methyl-4-propionylphenoxy)butoxy)-3-methoxybenzoic acid] | > 30 |  |  | 
22 | CCC(=O)c1ccc(OCCCCOc2cccc(C(=O)O)c2C)c(C)c1O [Compound 59, 3-(4-(3-Hydroxy-2-methyl-4-propionylphenoxy)butoxy)-2-methylbenzoic acid] | > 30 |  |  | 
23 | CCC(=O)c1ccc(OCCCCOc2ccc(C(=O)O)cc2C)c(C)c1O [Compound 61, 4-(4-(3-Hydroxy-2-methyl-4-propionylphenoxy)butoxy)-3-methylbenzoic acid] | > 30 |  |  | 
24 | COc1cc(C(=O)O)ccc1OCCCCOc1ccc(C(=O)C(C)C)c(O)c1C [Compound 62, 4-(4-(3-Hydroxy-4-isobutyryl-2-methylphenoxy)butoxy)-3-methoxybenzoic acid] | > 30 |  |  | 
25 | Cc1c(OCc2cccc(-c3occc3C(=O)O)c2)ccc(C(=O)CC(C)(C)C)c1O [Compound 178, 2-(3-((4-(3,3-Dimethylbutanoyl)-3-hydroxy-2-methylphenoxy)methyl)phenyl)furan-3-carboxylic acid] | 2.87 ± 1.12 | 0.409 ± 0.105 | 81.4 ± 10.1 | 67.7 ± 11.7
26 | Cc1c(OCc2cccc(-c3cncc(C(=O)O)c3)c2)ccc(C(=O)CC(C)(C)C)c1O [Compound 179, 5-(3-((4-(3,3-Dimethylbutanoyl)-3-hydroxy-2-methylphenoxy)methyl)phenyl)nicotinic acid] | 1.01 ± 0.02 | 0.848 ± 0.009 | 100 ± 2.9 | 102 ± 3.5
27 | Cc1c(OCc2cccc(-c3cnccc3C(=O)O)c2)ccc(C(=O)CC(C)(C)C)c1O [Compound 180, 3-(3-((4-(3,3-Dimethylbutanoyl)-3-hydroxy-2-methylphenoxy)methyl)phenyl)isonicotinic acid] | > 30 | 1.46 ± 0.02 | 88.4 ± 1.5 | 30.6 ± 9.2
28 | Cc1c(OCCCCOc2ccc(C(=O)C(C)C)c(O)c2C)cccc1C(=O)O [compound 64, 3-(4-(3-Hydroxy-4-isobutyryl-2-methylphenoxy)butoxy)-2-methylbenzoic acid] | > 30 |  |  | 
29 | Cc1cc(C(=O)O)ccc1OCCCCOc1ccc(C(=O)C(C)C)c(O)c1C [compound 66, 4-(4-(3-Hydroxy-4-isobutyryl-2-methylphenoxy)butoxy)-3-methylbenzoic acid] | > 30 |  |  | 
30 | COc1ccc(C(=O)O)cc1-c1cncc(COc2ccc(C(=O)CC(C)(C)C)c(O)c2C)c1 [compound 160, 3-(5-((4-(3,3-Dimethylbutanoyl)-3-hydroxy-2-methylphenoxy)methyl)pyridin-3-yl)-4-methoxybenzoic acid] |  |  |  | 110 ± 2.4
